# Assay results from US20140057915A1, “KINASE INHIBITORS” (TOPIVERT PHARMA LIMITED, priority 2012, published 2014).
# Read-outs that look alike come from different tables or passages of the source.
# Key:
# [1] = test system: 71 receptors and 26 enzymes; assay: Diversity Profile (Cerep); type: binding; conditions: 300 nM
# Experimental: Studies were conducted by Cerep (Celle-Lévescault, France) to investigate the binding of the compound of Example 77 to a diverse selection of receptors and to investigate either the inhibition or activation of a selection of enzymes (the “Diversity Profile” comprising a total of 71 receptors and 26 enzymes).
# [2] = test system: Salmonella typhimurium, strains TA98 and TA100; assay: Mutagenicity assessment (bacterial reverse mutation screen); conditions: presence or absence of S-9 mix; up to 5000 μg/plate
# Experimental: Mutagenicity Assessment (Bacterial Reverse Mutation Screen)
# Studies were conducted by Sequani (Ledbury, Herefordshire, UK) to assess the compound of Example 77 in vitro for its ability to induce mutations in two histidine dependent auxotrophic mutants of Salmonella typhimurium, strains TA98 and TA100.
# The mutation screen was conducted using the plate incorporation method and was performed in both the presence and absence of S-9 mix (a liver post-mitochondrial fraction derived from the livers of Aroclor 1254 treated rats). The bacteria were exposed to the compound of Example 77 dissolved in dimethylsulphoxide, which solvent was also used as the negative control. The dose levels used were 0.32, 1.6, 8, 40, 200, 1000 or 5000 μg/plate.
# [3] = target: B-Raf (V600e) (Homo sapiens, UniProt P15056, V600E); assay: Enzyme binding assay (KINOMEscan)
# Experimental: (§1) The kinase enzyme binding activities of compounds disclosed herein were determined using a proprietary assay which measures active site-directed competition binding to an immobilized ligand (Fabian, M. A. et al., Nature Biotechnol., 2005, 23:329-336). These assays were conducted by DiscoverX (formerly Ambit; San Diego, Calif.). The percentage inhibition produced by incubation with a test compound is calculated relative to the non-inhibited control.
# [4] = test system: SCID mice; assay: Adoptive transfer in mice; conditions: mouse
# Experimental: (D) Adoptive Transfer in Mice
# On Study day 0, female Balb/C mice are terminated and spleens obtained for CD45RB^high cell isolation (Using SCID IBD cell Separation protocol). Approximately 4×10^5 cells/mL CD45RB^high cells are then injected IP (100 μL/mouse) into female SCID animals. On study day 14, mice are weighed and randomized into treatment groups based on body weight. On Day 21, compounds are administered BID, via oral gavage, in a peanut oil vehicle at the dose levels outlined below and a dose volume of 5 mL/kg. Treatment continues until study day 42, at which point the animals are necropsied 4 hours after am administration. The colon length and weight is recorded and used as a secondary endpoint in the study as a measurement of colon oedema. The colon is then divided into six cross-sections, four of which are used for histopathology scoring (primary endpoint) and two are homogenised for cytokine analysis. Data shown is the % inhibition of the induction window between naïve animals and vehicle animals, where higher inhibition implies closer to the non-diseased, naïve, phenotype.
# [5] = target: CYP450 (Homo sapiens, UniProt P08684); assay: Time-dependent inhibition of cytochromes (CYP450 TDI); type: in vitro ADME; conditions: CYP3A4 (midazolam probe), human hepatic microsomes
# Experimental: (§2) (ii) Time-Dependent Inhibition of Cytochromes
# (§3) CYP450 time-dependent inhibition (TDI) assays were performed with test compound at six test concentrations, 0.062 μM to 15 μM (n=2). The test compounds was pre-incubated for 30 minutes with pooled human hepatic microsomes in 0.1 M Tris buffer, pH 7.4, at 37° C. in the presence of cofactor NADPH. A parallel series of incubations (n=2) were prepared with no pre-incubation. Probe substrates were then added (with additional cofactor) and further incubated for the times specified. Concentrations of probe substrates used in the incubations have been optimised to maintain first order reaction conditions.
# (§4) Reactions were terminated with acetonitrile containing analytical internal standard (carbamazepine), samples then centrifuged to remove microsomal protein and analysed using optimised LC/MS-MS conditions. The MS data were normalised to internal standard and compared to the appropriate solvent controls to determine the amount of metabolite formed from the probe substrate relative to the “uninhibited” controls. The results are quoted as % inhibition. These values were then plotted using the sigmoidal dose response equation (shown below) and IC50's calculated.
# (§5) Y=bottom+((top-bottom)/1+10̂((Log IC50−X)*Hill slope)) • X=Log concentration • Y=response
# (§6) Variation in probe turnover between plate wells means that inhibition values recorded below 10-15% may not be significant.
# [6] = target: CYP450 (Homo sapiens, UniProt P11712); assay: as above; type: in vitro ADME; conditions: CYP2C9 (diclofenac probe), human hepatic microsomes
# Experimental: as §2, §3, §4, §5, §6
# [7] = target: CYP2C9 (Homo sapiens, UniProt P11712); assay: as above; type: in vitro ADME; conditions: human, pooled human liver microsomes, pH 7.4, probe diclofenac, CYP2C9 (diclofenac probe), 15 μM, human hepatic microsomes, read-out: 15 μM % Inh
# Experimental: as §2, §3, §4, §5, §6
# [8] = target: CYP3A4 (Homo sapiens, UniProt P08684); assay: as above; type: in vitro ADME; conditions: human, pooled human liver microsomes, pH 7.4, probe midazolam, CYP3A4 (midazolam probe), 15 μM, human hepatic microsomes, read-out: 15 μM % Inh
# Experimental: as §2, §3, §4, §5, §6
# [9] = target: cSrc (Homo sapiens, UniProt P12931); assay: Enzyme binding assay (Kinomescan); conditions: read-out: % Inhibition of kinase binding at 500 nM, cSrc
# Experimental: (§7) These assays were conducted by DiscoverX (formerly Ambit; San Diego, Calif.). The percentage inhibition produced by incubation with a test compound is calculated relative to the non-inhibited control.
# [10] = target: GSK3α (Homo sapiens, UniProt P49840); assay: Enzyme binding assay (Kinomescan); conditions: read-out: % Inhibition of kinase binding at 500 nM, GSK3α
# Experimental: as §7
# [11] = target: p38 MAPKγ (Homo sapiens, UniProt P53778); assay: Enzyme binding assay (Kinomescan); conditions: read-out: % Inhibition of kinase binding at 500 nM, p38 MAPKγ
# Experimental: (§8) Enzyme Binding Assays (Kinomescan)
# as §7
# [12] = target: p38 MAPKα (Homo sapiens, UniProt Q16539); assay: Enzyme binding assay (Kinomescan); conditions: read-out: % Inhibition of kinase binding at 500 nM, p38 MAPKα
# Experimental: as §8, §1
# Sequence of CYP2C9 (P11712 whole entry): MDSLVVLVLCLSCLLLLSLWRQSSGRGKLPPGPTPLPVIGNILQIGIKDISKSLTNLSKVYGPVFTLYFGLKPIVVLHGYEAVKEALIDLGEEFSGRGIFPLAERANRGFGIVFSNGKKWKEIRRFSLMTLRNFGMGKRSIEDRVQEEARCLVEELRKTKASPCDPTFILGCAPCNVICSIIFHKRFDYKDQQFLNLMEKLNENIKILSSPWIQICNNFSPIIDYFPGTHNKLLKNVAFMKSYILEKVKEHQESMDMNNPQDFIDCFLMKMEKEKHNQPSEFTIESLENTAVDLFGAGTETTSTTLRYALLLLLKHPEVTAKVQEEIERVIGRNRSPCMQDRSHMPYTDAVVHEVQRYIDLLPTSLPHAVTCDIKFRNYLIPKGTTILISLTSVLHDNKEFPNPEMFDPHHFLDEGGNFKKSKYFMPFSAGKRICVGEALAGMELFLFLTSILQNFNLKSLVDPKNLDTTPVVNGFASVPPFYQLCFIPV
# Sequence of CYP450 (Homo sapiens, UniProt P11712) (P11712 whole entry): as above
# Sequence of CYP3A4 (P08684 whole entry): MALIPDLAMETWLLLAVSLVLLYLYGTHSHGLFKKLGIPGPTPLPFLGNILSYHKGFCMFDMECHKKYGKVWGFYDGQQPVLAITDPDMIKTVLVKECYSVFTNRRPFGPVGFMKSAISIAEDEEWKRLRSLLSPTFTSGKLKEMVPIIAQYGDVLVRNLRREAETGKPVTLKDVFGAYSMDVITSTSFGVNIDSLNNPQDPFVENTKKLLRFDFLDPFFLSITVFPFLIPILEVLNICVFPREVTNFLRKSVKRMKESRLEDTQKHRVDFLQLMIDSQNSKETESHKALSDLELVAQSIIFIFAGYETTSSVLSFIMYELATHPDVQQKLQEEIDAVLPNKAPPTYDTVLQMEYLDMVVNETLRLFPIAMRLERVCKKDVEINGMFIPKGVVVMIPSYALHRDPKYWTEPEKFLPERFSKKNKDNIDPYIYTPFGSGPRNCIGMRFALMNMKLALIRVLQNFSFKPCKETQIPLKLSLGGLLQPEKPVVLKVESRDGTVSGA
# Sequence of CYP450 (Homo sapiens, UniProt P08684) (P08684 whole entry): as above
# Sequence of p38 MAPKγ (P53778 whole entry): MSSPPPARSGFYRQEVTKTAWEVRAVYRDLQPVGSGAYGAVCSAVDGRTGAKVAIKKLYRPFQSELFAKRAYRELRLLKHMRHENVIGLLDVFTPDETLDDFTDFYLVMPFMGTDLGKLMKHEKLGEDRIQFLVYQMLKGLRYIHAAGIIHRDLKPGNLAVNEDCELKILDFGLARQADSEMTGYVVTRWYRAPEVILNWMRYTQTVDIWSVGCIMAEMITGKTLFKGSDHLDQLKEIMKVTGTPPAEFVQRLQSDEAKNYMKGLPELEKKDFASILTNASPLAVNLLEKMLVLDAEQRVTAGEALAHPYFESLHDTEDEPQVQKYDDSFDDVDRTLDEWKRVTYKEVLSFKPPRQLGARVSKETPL
# Sequence of B-Raf (V600e) (P15056 whole entry V600E): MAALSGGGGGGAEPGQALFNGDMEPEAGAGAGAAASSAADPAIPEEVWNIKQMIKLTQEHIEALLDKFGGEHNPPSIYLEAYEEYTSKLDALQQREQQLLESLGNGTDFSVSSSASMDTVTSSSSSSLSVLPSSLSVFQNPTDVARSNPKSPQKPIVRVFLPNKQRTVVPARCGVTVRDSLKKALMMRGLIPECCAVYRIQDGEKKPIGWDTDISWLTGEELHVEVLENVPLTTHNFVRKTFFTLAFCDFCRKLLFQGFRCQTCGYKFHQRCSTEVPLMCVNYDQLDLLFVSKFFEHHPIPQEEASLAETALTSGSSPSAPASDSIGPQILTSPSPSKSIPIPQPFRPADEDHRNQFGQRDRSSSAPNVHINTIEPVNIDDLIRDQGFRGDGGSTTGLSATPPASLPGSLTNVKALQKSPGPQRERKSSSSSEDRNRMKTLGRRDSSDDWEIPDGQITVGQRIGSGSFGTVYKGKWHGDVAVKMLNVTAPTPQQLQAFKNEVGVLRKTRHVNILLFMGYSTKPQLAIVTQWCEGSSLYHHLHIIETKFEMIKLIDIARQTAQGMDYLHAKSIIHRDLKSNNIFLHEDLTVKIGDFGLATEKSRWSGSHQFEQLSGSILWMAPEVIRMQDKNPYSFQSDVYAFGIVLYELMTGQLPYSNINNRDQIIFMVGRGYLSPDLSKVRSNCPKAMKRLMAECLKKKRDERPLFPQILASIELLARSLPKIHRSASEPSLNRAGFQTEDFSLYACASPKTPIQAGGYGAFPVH
# Sequence of GSK3α (P49840 whole entry): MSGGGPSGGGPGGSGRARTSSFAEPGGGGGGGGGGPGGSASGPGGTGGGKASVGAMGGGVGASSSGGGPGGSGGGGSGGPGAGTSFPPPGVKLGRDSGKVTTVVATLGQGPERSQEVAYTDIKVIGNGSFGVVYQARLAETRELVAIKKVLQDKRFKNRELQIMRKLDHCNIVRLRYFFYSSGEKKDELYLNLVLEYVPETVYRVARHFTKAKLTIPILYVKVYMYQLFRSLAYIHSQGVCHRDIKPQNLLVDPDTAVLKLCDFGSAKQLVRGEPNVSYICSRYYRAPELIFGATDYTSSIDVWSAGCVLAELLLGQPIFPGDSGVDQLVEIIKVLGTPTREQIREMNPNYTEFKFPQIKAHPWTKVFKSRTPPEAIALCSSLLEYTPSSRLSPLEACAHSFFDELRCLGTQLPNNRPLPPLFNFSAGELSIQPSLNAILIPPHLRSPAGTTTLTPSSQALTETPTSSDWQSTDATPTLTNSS
# Sequence of cSrc (P12931 whole entry): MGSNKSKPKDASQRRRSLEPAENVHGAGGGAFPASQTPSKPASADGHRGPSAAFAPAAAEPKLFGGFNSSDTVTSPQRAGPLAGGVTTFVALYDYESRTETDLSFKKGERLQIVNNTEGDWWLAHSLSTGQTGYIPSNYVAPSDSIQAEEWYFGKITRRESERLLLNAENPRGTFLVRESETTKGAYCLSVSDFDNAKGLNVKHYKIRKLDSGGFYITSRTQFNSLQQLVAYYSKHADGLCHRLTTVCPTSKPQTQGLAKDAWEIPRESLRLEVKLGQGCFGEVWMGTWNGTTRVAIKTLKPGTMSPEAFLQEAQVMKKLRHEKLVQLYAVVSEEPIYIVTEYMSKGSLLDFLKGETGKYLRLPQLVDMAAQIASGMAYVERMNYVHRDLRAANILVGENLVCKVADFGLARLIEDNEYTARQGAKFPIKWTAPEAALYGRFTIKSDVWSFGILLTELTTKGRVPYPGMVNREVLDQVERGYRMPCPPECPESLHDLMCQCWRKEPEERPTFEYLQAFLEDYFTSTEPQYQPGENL
# Sequence of p38 MAPKα (Q16539 whole entry): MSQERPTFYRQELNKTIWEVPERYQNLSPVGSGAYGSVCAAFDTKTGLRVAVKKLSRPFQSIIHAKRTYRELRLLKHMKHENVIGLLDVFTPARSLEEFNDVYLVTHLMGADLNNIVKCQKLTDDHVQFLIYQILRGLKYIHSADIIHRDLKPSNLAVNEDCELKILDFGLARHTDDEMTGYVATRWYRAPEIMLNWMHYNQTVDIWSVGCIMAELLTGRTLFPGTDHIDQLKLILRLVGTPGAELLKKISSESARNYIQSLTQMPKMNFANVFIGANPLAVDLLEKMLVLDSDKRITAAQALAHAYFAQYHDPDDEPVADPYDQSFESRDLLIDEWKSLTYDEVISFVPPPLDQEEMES
inhibition at 0.5 µM [9] [%],inhibition at 0.5 µM [10] [%],inhibition at 0.5 µM [11] [%],inhibition at 0.5 µM [12] [%],SMILES,inhibition of control specific binding in the receptor binding assays or enzyme assays [1],revertant colonies (mutagenic effects) [2],effect on the binding of the kinase B-Raf (V600e) to its standard ligand [3],activity in adoptive transfer in vivo model of colonic inflammation [4],IC50 ([5]; 0 min preincubation) [µM],IC50 ([5]; 30 min preincubation) [µM],IC50 ([6]; 0 min preincubation) [µM],IC50 ([6]; 30 min preincubation) [µM],inhibition at 15 µM ([7]; 0 min preincubation) [%],inhibition at 15 µM ([7]; 30 min preincubation) [%],inhibition at 15 µM ([8]; 0 min preincubation) [%],inhibition at 15 µM ([8]; 30 min preincubation) [%]
,,,,"C#Cc1cc(Nc2nccc(Oc3ccc(NC(=O)Nc4cc(C(C)(C)C)nn4-c4ccc(OC)cc4)c4ccccc34)n2)cc(C(=O)NCCN2CCOCC2)c1 [Example 77, 3-((4-((4-(3-(3-(tert-Butyl)-1-(4-methoxyphenyl)-1H-pyrazol-5-yl)ureido)-naphthalen-1-yl)oxy)pyrimidin-2-yl)amino)-5-ethynyl-N-(2-morpholinoethyl)benzamide]",less than 25%,no dose-related or statistically significant increases in revertant colonies,did not have any effect on the binding,significant activity,> 15,> 15,> 15,> 15,-4,1,15,35
100,19,82,95,"COc1cc(Nc2nccc(Oc3ccc(NC(=O)Nc4cc(C(C)C)nn4-c4ccc(C)cc4)c4ccccc34)n2)cc(C(=O)NCCN2CCOCC2)c1 [Example 8, 3-((4-((4-(3-(3-Isopropyl-1-(p-tolyl)-1H-pyrazol-5-yl)ureido)naphthalen-1-yl)oxy)pyrimidin-2-yl)amino)-5-methoxy-N-(2-morpholinoethyl)benzamide]",,,,,,,,,,,,
